Laboratory results: patent US11993599B2, “Therapeutic compounds” (Genentech, Inc., priority 2021, dated 2024)

Columns and labels:
[1] = target: T1, BRG1 (Homo sapiens, UniProt P51532); experiment: Immunofluorescence assay for BRG1 degradation in SW1573 cells; type: cell-based; conditions: 20 hours incubation; for DC50: immunofluorescence mean nuclear signal, read-out: BRG1 IF Degradation IC50; for Dmax: SW1573, 20 h, normalized to a known degrader control, read-out: BRG1 IF Degradation Sinf (%)
T1 construct: either BRM primary antibody (Cell signaling Cat #11966) or BRG primary antibody (Abcam, ab 110641); endogenous in cells; host or cells: SW1573
Description: (§1) Example B-2: Immunofluorescence Assay for BRM and BRG1 Degraders
(§2) SW1573 cells were seeded at 3000 cells/well in 384 well plates. The next day, compounds were added using an Echo dispenser. After 20 hours of incubation with compound, cells were fixed with 4% formaldehyde then permeabilized with 0.2% Triton X-100 and blocked with 10% FCS. Fixed and permeabilized cells were treated overnight at 4° C. with either BRM primary antibody (Cell signaling Cat #11966) or BRG primary antibody (Abcam, ab 110641). Finally, cells were treated with fluorescently labeled secondary antibodies for 1 hr (Donkey anti-Rabbit IgG AF488, Life Technologies, A21206) and Hoechst nuclear stain (#H3569) was added for 30 minutes. Cells were washed with PBS in between each step and before imaging on an Opera Phenix microscope (Perkin Elmer). Harmony software (Perking Elmer) was used to quantify the mean nuclear signaling intensity of BRM or BRG signaling per cell in each well. Dose responses were determined from the concentration dependent response of mean nuclear signal intensity with data normalized to a known degrader control. Dose response curves were fit to a floating maximum to allow for calculation of the Dmax.
(§3) Note that, in Table 5, the “Compound Number” corresponds to that used in Table 1. In Table 5, for BRM and BRG1 IF degradation IC50 (μM): A indicates <0.010 μM, B indicates 0.010-0.10 μM, and C indicates >0.10 μM; and for BRM and BRG1 IF degradation Sinf % D indicates 0-−30%, E indicates −30%-−70%, F indicates −71%-−120% and ND indicates the value was not determined.

[2] = target: BRM (Homo sapiens, UniProt P51531); experiment: Immunofluorescence assay for BRM degradation in SW1573 cells; type: cell-based; parameters: treated overnight at 4° C. with either BRM primary antibody (Cell signaling Cat #11966) or BRG primary antibody; endogenous in cells; host or cells: SW1573; conditions: 20 hours incubation; for DC50: immunofluorescence mean nuclear signal, read-out: BRM IF Degradation IC50; for BRM IF Degradation Sinf (%): normalized to a known degrader control
Description: as §1, §2, §3

T1 sequence (P51532 whole entry): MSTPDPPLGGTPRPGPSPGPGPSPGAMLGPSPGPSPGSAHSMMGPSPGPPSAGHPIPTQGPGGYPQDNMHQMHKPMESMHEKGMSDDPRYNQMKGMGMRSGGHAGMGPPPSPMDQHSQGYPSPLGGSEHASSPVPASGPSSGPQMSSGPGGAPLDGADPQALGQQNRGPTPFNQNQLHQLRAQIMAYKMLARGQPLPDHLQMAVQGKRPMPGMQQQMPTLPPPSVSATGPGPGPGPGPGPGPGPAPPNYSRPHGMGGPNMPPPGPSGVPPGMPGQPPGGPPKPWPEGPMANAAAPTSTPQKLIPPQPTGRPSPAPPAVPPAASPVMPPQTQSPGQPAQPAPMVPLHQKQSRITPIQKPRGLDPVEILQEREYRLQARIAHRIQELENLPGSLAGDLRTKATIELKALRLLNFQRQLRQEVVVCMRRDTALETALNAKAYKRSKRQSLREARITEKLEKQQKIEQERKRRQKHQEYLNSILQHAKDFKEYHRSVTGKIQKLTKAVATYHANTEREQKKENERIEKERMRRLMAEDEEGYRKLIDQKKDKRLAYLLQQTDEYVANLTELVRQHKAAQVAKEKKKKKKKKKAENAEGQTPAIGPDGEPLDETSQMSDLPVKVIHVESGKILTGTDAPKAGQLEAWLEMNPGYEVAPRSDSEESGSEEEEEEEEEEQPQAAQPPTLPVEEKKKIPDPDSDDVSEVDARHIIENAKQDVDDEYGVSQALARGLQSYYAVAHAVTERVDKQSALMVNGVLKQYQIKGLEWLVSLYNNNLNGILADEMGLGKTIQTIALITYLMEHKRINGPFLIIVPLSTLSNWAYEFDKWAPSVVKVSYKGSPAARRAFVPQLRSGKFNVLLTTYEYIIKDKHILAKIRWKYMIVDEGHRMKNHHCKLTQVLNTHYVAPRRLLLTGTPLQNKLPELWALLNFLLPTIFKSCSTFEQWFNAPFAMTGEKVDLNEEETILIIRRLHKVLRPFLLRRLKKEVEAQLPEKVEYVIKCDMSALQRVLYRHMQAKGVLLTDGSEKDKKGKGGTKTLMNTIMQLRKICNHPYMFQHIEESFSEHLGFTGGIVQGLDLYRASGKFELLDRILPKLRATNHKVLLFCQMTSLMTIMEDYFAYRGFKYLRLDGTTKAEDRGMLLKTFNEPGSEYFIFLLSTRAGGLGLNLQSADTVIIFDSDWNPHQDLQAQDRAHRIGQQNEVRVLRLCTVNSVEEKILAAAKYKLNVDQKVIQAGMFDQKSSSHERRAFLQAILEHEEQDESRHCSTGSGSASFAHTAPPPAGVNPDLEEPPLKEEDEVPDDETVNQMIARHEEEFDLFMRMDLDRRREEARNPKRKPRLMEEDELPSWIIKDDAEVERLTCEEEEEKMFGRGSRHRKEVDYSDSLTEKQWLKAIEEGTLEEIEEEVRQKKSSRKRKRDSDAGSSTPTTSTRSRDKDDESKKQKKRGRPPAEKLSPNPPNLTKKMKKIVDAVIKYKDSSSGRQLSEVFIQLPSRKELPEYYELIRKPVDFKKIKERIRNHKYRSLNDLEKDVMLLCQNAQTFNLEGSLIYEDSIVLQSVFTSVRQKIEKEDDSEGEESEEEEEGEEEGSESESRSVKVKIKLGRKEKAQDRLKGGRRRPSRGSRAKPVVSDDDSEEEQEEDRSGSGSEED
BRM, sequence (P51531 whole entry): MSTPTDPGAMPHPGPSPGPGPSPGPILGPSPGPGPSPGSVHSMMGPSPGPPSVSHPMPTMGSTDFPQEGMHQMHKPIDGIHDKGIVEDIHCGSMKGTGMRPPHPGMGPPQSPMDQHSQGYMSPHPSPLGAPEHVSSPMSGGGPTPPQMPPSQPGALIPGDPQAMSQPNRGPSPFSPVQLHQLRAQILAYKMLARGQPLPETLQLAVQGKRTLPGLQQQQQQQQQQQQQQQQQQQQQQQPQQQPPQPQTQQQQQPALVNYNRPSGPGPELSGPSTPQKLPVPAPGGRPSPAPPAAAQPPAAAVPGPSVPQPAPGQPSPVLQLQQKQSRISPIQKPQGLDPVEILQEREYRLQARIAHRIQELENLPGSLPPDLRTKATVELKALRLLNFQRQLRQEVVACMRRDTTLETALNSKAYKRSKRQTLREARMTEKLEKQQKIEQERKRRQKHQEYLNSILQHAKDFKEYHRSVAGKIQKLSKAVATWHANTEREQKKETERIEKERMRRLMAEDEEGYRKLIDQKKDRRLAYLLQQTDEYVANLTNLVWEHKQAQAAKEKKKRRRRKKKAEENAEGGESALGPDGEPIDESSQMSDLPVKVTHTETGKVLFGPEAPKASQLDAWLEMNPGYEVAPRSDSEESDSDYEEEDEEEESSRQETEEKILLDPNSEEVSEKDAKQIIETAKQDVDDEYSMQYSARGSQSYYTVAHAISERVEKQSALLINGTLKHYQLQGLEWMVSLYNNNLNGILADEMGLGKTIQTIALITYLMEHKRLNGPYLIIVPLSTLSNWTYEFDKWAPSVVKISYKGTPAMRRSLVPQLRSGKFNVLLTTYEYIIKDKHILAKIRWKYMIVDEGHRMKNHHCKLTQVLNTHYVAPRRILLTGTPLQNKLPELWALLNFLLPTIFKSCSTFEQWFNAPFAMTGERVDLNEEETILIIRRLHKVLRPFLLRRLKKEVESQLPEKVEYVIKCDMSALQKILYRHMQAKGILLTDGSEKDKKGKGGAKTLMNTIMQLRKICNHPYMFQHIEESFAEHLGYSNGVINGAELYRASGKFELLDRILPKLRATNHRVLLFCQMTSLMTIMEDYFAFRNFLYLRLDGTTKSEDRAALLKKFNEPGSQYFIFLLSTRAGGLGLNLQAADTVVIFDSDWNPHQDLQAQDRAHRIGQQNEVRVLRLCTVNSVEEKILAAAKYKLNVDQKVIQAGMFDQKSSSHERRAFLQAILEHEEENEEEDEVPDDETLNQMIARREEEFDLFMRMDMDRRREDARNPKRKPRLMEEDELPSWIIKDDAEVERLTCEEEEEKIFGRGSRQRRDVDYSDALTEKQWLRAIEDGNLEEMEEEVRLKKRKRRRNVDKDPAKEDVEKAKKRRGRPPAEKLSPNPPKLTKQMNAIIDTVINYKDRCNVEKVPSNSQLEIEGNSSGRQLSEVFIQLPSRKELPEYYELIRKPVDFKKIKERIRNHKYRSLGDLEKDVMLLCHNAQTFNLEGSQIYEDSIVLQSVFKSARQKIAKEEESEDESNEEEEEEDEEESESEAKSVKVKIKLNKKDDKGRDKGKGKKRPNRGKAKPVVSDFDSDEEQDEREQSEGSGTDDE

Nc1nnc(-c2ccccc2O)cc1N1CC2CCC(C1)N2c1ccnc(C#CCN2CCC(F)CC2)c1 [Compound 131, 2-[6-amino-5-[8-[2-[3-(4-fluoro-1-piperidyl)prop-1-ynyl]-4-pyridyl]-3,8-diazabicyclo[3.2.1]octan-3-yl]pyridazin-3-yl]phenol]
DC50 [1]: < 10 nM
Dmax [1]: 0 to 30%
DC50 [2]: < 10 nM
BRM IF Degradation Sinf (%) [2]: E (E indicates −30%-−70%)

Nc1nnc(-c2ccccc2O)cc1N1CC2CCC(C1)N2c1ccnc(C#CCN2CCCC(F)CC2)c1 (stereo not drawn) [Compound 193, 2-[6-amino-5-[8-[2-[3-(4-fluoroazepan-1-yl)prop-1-ynyl]-4-pyridyl]-3,8-diazabicyclo[3.2.1]octan-3-yl]pyridazin-3-yl]phenol]
DC50 [1]: < 10 nM
Dmax [1]: 71 to 120%
DC50 [2]: < 10 nM
BRM IF Degradation Sinf (%) [2]: F (F indicates −71%-−120%)

Nc1nnc(-c2ccccc2O)cc1N1CC2CCC(C1)N2c1ccnc(C#CCN2C[C@@H]3C[C@H]2[C@H]2C[C@@H]32)c1 [Compound 123, 2-[6-amino-5-[8-[2-[3-[(1R,2S,4S,5S)-6-azatricyclo[3.2.1.02,4]octan-6-yl]prop-1-ynyl]-4-pyridyl]-3,8-diazabicyclo[3.2.1]octan-3-yl]pyridazin-3-yl]phenol]
DC50 [1]: < 10 nM
Dmax [1]: 30 to 70%
DC50 [2]: < 10 nM
BRM IF Degradation Sinf (%) [2]: E (E indicates −30%-−70%)

Nc1nnc(-c2ccccc2O)cc1N1CC2CCC(C1)N2c1ccnc(C#CCN2CCC3CCCC32)c1 (stereo not drawn) [Compound 94, 2-[5-[8-[2-[3-(3,3a,4,5,6,6a-hexahydro-2H-cyelopenta[b]pyrrol-1-yl)prop-1-ynyl]-4-pyridyl]-3,8-diazabicyclo[3.2.1]octan-3-yl]-6-amino-pyridazin-3-yl]phenol]
DC50 [1]: < 10 nM
Dmax [1]: 30 to 70%
DC50 [2]: < 10 nM
BRM IF Degradation Sinf (%) [2]: E (E indicates −30%-−70%)

Nc1nnc(-c2ccccc2O)cc1N1CC2CCC(C1)N2c1ccnc(C#CCN2CC3CNCC3C2)c1 (stereo not drawn) [Compound 54, 2-[5-[8-[2-[3-(2,3,3a,4,6,6a-hexahydro-1H-pyrrolo[3,4-c]pyrrol-5-yl)prop-1-ynyl]-4-pyridyl]-3,8-diazabicyclo[3.2.1]octan-3-yl]-6-amino-pyridazin-3-yl]phenol]
DC50 [1]: > 100 nM
Dmax [1]: 30 to 70%
DC50 [2]: > 100 nM
BRM IF Degradation Sinf (%) [2]: F (F indicates −71%-−120%)

Nc1nnc(-c2ccccc2O)cc1N1CC2CCC(C1)N2c1ccnc(C#CCN2CCCCCC2)n1 [Compound 245, 2-(6-amino-5-(8-(2-(3-(azepan-1-yl)prop-1-yn-1-yl)pyrimidin-4-yl)-3,8-diazabicyclo[3.2.1]octan-3-yl)pyridazin-3-yl)phenol]
DC50 [1]: < 10 nM
Dmax [1]: 30 to 70%
DC50 [2]: < 10 nM
BRM IF Degradation Sinf (%) [2]: F (F indicates −71%-−120%)

Nc1nnc(-c2ccccc2O)cc1N1CC2CCC(C1)N2c1ccnc(C#CCN2CC3(CC(F)C3)C2)c1 [Compound 97, 2-[6-amino-5-[8-[2-[3-(6-fluoro-2-azaspiro[3.3]heptan-2-yl)prop-1-ynyl]-4-pyridyl]-3,8-diazabicyclo[3.2.1]octan-3-yl]pyridazin-3-yl]phenol]
DC50 [1]: < 10 nM
Dmax [1]: 30 to 70%
DC50 [2]: < 10 nM
BRM IF Degradation Sinf (%) [2]: F (F indicates −71%-−120%)

Nc1nnc(-c2ccccc2O)cc1N1CC2CCC(C1)N2c1ccnc(C#CCN2CCC[C@H]2CO)c1 [Compound 46, 2-[6-amino-5-[8-[2-[3-[(2S)-2-(hydroxymethyl)pyrrolidin-1-yl]prop-1-ynyl]-4-pyridyl]-3,8-diazabicyclo[3.2.1]octan-3-yl]pyridazin-3-yl]phenol]
DC50 [1]: 10 to 100 nM
Dmax [1]: 30 to 70%
DC50 [2]: < 10 nM
BRM IF Degradation Sinf (%) [2]: E (E indicates −30%-−70%)

CC1(O)CCCN(CC#Cc2cc(N3C4CCC3CN(c3cc(-c5ccccc5O)nnc3N)C4)ccn2)CC1 (stereo not drawn) [Compound 244, 1-[3-[4-[3-[3-amino-6-(2-hydroxyphenyl)pyridazin-4-yl]-3,8-diazabicyclo[3.2.1]octan-8-yl]-2-pyridyl]prop-2-ynyl]-4-methyl-azepan-4-ol]
DC50 [1]: < 10 nM
Dmax [1]: 30 to 70%
DC50 [2]: 10 to 100 nM
BRM IF Degradation Sinf (%) [2]: E (E indicates −30%-−70%)

Nc1nnc(-c2ccccc2O)cc1N1CC2CCC(C1)N2c1ccnc(C#CCN2Cc3cn[nH]c3C2)c1 [Compound 149, 2-[6-amino-5-[8-[2-[3-(4,6-dihydro-1H-pyrrolo[3,4-c]pyrazol-5-yl)prop-1-ynyl]-4-pyridyl]-3,8-diazabicyclo[3.2.1]octan-3-yl]pyridazin-3-yl]phenol]
DC50 [1]: 10 to 100 nM
Dmax [1]: 0 to 30%
DC50 [2]: 10 to 100 nM
BRM IF Degradation Sinf (%) [2]: E (E indicates −30%-−70%)

CN(CC#Cc1cc(N2C3CCC2CN(c2cc(-c4ccccc4O)nnc2N)C3)ccn1)C1CCS(=O)(=O)C1 (stereo not drawn) [Compound 51, 2-[6-amino-5-[8-[2-[3-[(1,1-dioxothiolan-3-yl)-methyl-amino]prop-1-ynyl]-4-pyridyl]-3,8-diazabicyclo[3.2.1]octan-3-yl]pyridazin-3-yl]phenol]
DC50 [1]: > 100 nM
Dmax [1]: 30 to 70%
DC50 [2]: > 100 nM
BRM IF Degradation Sinf (%) [2]: E (E indicates −30%-−70%)

CC1CN(CC#Cc2cc(N3C4CCC3CN(c3cc(-c5ccccc5O)nnc3N)C4)ccn2)C1C (stereo not drawn) [Compound 180, 2-[6-amino-5-[8-[2-[3-(2,3-dimethylazetidin-1-yl)prop-1-ynyl]-4-pyridyl]-3,8-diazabicyclo[3.2.1]octan-3-yl]pyridazin-3-yl]phenol]
DC50 [1]: < 10 nM
Dmax [1]: 30 to 70%
DC50 [2]: < 10 nM
BRM IF Degradation Sinf (%) [2]: E (E indicates −30%-−70%)

Nc1nnc(-c2ccccc2O)cc1N1CC2CCC(C1)N2c1ccnc(C#CCN2CC3CC2C3)c1 [Compound 86, 2-[6-amino-5-[8-[2-[3-(2-azabicyclo[2.1.1]hexan-2-yl)prop-1-ynyl]-4-pyridyl]-3,8-diazabicyclo[3.2.1]octan-3-yl]pyridazin-3-yl]phenol]
DC50 [1]: < 10 nM
Dmax [1]: 30 to 70%
DC50 [2]: < 10 nM
BRM IF Degradation Sinf (%) [2]: E (E indicates −30%-−70%)

CC1CCCN(CC#Cc2cc(N3C4CCC3CN(c3cc(-c5ccccc5O)nnc3N)C4)ccn2)CC1C (stereo not drawn) [Compound 195, 2-[6-amino-5-[8-[2-[3-(3,4-dimethylazepan-1-yl)prop-1-ynyl]-4-pyridyl]-3,8-diazabicyclo[3.2.1]octan-3-yl]pyridazin-3-yl]phenol]
DC50 [1]: < 10 nM
Dmax [1]: 30 to 70%
DC50 [2]: < 10 nM
BRM IF Degradation Sinf (%) [2]: F (F indicates −71%-−120%)

CC1(C)CN(CC#Cc2cc(N3C4CCC3CN(c3cc(-c5ccccc5O)nnc3N)C4)ccn2)CCO1 [Compound 119, 2-[6-amino-5-[8-[2-[3-(2,2-dimethylmorpholin-4-yl)prop-1-ynyl]-4-pyridyl]-3,8-diazabicyclo[3.2.1]octan-3-yl]pyridazin-3-yl]phenol]
DC50 [1]: > 100 nM
DC50 [2]: > 100 nM
BRM IF Degradation Sinf (%) [2]: E (E indicates −30%-−70%)

Nc1nnc(-c2ccccc2O)cc1N1CC2CCC(C1)N2c1ccnc(C#CCN2CC(C(F)F)C2)c1 [Compound 95, 2-[6-amino-5-[8-[2-[3-[3-(difluoromethyl)azetidin-1-yl]prop-1-ynyl]-4-pyridyl]-3,8-diazabicyclo[3.2.1]octan-3-yl]pyridazin-3-yl]phenol]
DC50 [1]: < 10 nM
Dmax [1]: 30 to 70%
DC50 [2]: < 10 nM
BRM IF Degradation Sinf (%) [2]: E (E indicates −30%-−70%)
